Data on 4 compounds can be found in ChEMBL document CHEMBL1133336, “Synthesis of a cyanopeptide-analogue with trypsin activating properties” (Bioorg Med Chem Lett, 2000).

One test deals with Prothrombin (Homo sapiens, UniProt P00734). The test can be described thus: Compound was tested for inhibition of thrombin.
A further test concerns the target Plasminogen (Homo sapiens, UniProt P00747). Briefly: Compound was tested for inhibition of plasmin.
Test [1] has as its target T1, Serine protease 1 (Homo sapiens, UniProt P07477). Briefly: Compound was tested for inhibition of trypsin.
The target in test [2] is T1, Serine protease 1. Briefly: Percent increase in the activity of trypsin by the compound at concentration between 20 mM and 40 mM.

Plasminogen, sequence (P00747 97-580 limits assumed): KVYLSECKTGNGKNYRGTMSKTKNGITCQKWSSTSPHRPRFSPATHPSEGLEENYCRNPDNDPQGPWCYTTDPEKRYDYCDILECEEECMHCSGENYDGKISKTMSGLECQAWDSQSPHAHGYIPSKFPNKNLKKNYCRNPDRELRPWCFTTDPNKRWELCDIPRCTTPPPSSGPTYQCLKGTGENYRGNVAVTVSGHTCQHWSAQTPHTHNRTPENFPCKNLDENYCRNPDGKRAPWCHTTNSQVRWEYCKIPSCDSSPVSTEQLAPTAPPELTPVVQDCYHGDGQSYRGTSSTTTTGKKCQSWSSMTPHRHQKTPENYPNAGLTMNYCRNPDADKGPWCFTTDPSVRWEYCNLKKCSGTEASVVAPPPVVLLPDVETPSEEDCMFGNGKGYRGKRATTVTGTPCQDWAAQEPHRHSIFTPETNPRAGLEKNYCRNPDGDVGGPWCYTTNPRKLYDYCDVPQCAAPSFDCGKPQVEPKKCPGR
Plasminogen, sequence (P00747 581-810 limits assumed): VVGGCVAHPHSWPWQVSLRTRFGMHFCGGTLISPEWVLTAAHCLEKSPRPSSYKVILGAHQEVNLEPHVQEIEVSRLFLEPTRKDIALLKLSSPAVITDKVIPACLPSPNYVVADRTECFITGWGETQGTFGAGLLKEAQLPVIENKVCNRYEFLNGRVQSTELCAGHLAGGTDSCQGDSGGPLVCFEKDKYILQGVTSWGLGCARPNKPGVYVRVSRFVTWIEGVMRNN
T1 sequence (P07477 whole entry): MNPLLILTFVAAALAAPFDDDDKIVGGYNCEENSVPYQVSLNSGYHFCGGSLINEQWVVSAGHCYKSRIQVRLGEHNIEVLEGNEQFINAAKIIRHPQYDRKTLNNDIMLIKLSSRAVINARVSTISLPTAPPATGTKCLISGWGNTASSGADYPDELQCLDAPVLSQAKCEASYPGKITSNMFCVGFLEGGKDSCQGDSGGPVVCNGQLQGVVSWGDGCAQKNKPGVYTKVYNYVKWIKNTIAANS

By IC50 is commonly meant the concentration that gives 50% inhibition. As for `CC[C@H](C)[C@H](NC(=O)C(O)Cc1ccc(O)c(Cl)c1)C(=O)N1C2CC(OS(=O)(=O)O)CCC2C[C@H]1C(=O)NCCCCN=C(N)N` (stereo not given in full), the IC50 on Prothrombin was 10200 nM; on Plasminogen, 8710 nM; against Serine protease 1 [1] it was 871 nM.

Turning to `CC[C@H](C)[C@H](NC(=O)C(O)Cc1ccc(O)cc1)C(=O)N1C2CC(OS(=O)(=O)O)CCC2C[C@H]1C(=O)NCCCCN=C(N)N` (stereo not given in full), the IC50 against Prothrombin is 15300 nM; against Plasminogen it was 10700 nM; on Serine protease 1 [1], 916 nM.

In turn, `CCC(C)C(NC(=O)CCc1ccc(O)cc1)C(=O)N1CCN(CCOC(=O)C2CCCN2)CC1` (stereo not given) displayed an Increase at Serine protease 1 [2] of 70%.

Consider `N=C(N)N1CCC[C@H](NC(=O)C2CC3CCC(O)CC3N2C(=O)[C@@H](Cc2ccc(O)cc2)NC(=O)[C@H](O)Cc2ccc(OS(=O)(=O)O)cc2)C1O` (stereo not given in full), for which the IC50 against Prothrombin was 54.6 nM; against Plasminogen it was 409 nM; against Serine protease 1 [1] it was 273 nM.
